{"source": "patent US12031087B2", "about": "“Oxygenated solvents for improved production of oil and gas” (Board of Regents, The University of Texas System, priority 2019, dated 2024)", "key": {"[1]": {"assay": "Miscibility of 3p with crude oil", "format": "physicochemical", "settings": "room temperature, 30-95 wt % 3p", "source_text": "3-Pentanone properties. […] The density of 3p is 760 kg/m^3 at the experimental conditions in this research (347 K and atmospheric pressure)."}, "[2]": {"assay": "Solubility of water in 3p", "format": "physicochemical", "settings": "343 K"}, "[3]": {"assay": "Viscosity of crude oil/3p mixtures (in-line viscometer)", "format": "physicochemical", "settings": "347 K", "protocol": "Density and viscosity experiments. […] The system consists mainly of automated pumps, a sample accumulator, an in-line fluid densitometer, an in-line viscometer, an oven, and an effluent accumulator. The pump (Teledyne ISCO 100DX) maintained the system pressure automatically by water.\nIn the density measuring cell (Anton Paar DMA-HPM), fluid's density is measured in a U-shaped tube, in the range from 0 to 3000 kg/m^3. The instrument precision of the density meter is ±1 kg/m^3. Anton Paar DMA-HPM uses the method of oscillating U-tube for its density measurement, in which the sample's density is calculated from the sample's period of oscillation. The in-line viscometer (ViscoPro 2100) measures the viscosity of a fluid in the range from 0.2 to 2 cp. The instrument precision of the viscometer is ±0.02 cp and repeatability is ±0.5% of the reading. During the viscosity measurement, the magnetic piston is surrounded by the fluid sample and oscillates under magnetic force. The sample's viscosity is calculated from the time required for the piston to complete a two-way cycle. The viscometer and density meter were placed in a Despatch oven (model LAC2-18-8). Light-emitting diode screens that display measured data from the fluid densitometer and viscometer were connected outside the oven. The absolute pressure of the system was measured with a pressure gauge (Omega PX459-2.5KGI-EH).\nDensities and viscosities were measured for the following mixtures of crude oil and 3p: 81.4 wt % crude oil and 18.6 wt % 3p (33 mol % 3p), 59.0 wt % crude oil and 41.0 wt % 3p (60 mol % 3p), and 35.1 wt % crude oil and 64.9 wt % 3p (80 mol % 3p). Each mixture was mixed in a glass bottle with a magnetic mixer before placing it in the accumulator.\nBefore each measurement, the system was cleaned thoroughly with toluene. Then, the system was dried by air and evacuated. Next, the fluid mixture was pumped into the system from the accumulator. Then, the temperature in the oven was increased to 347 K. When the temperature in the oven was stable, the mixture was measured for viscosities and densities at different pressures, ranging from 101 kPa to 10342 kPa."}, "[4]": {"assay": "Coreflooding of fractured cores, vertical (Example 2)", "protocol": "Experimental Procedure for Coreflooding. […] The Indiana limestone cores have the common dimensions with a diameter of 0.0254 m and a length of 0.127 m. The cores were saturated with RB first and then oil, during which the core properties were measured, such as porosity, permeability, and water and oil saturations.\nIt includes an accumulator for crude oil, a pump, a Hassler-type core holder, a hydraulic manual pump to maintain the overburden pressure, a differential pressure gauge, cylinders, and an oven. After a core was placed in the core holder, oil was injected into the cores at 100 cm^3/h and 347 K until no water production was observed.\nAn artificial fracture was created along the longitudinal axis using an electric saw for each core (FIG. 20). By following the procedure of Mejia, Teflon spacers with 0.001 m in width and 0.127 m in length were placed along two edges of the fracture to maintain a fracture aperture. Then, the core halves were carefully put together with the Teflon spacers in the fracture, wrapped with a Teflon tube, and placed inside a vertically oriented coreholder.\nFIG. 21 provides a schematic of the experimental setup for coreflooding. It consists of accumulators for crude oil, RB, and chemical solution (3-pentanone or surfactant), a pump, a Hassler-type core holder, a hydraulic manual pump to maintain the overburden pressure, a differential pressure gauge, cylinders, and an oven. […] After a fractured core was placed in the coreholder, the oven temperature was increased to reservoir temperature (347 K). Then, the core was flooded with crude oil to remove any gas inside the fracture and measure the fracture permeability using the flow rate of 900 cm^3/h. The overburden pressure was adjusted so that all cores used in this research had similar fracture apertures and fracture permeabilities.\nFracture permeabilities were calculated. The equation for flow between parallel plates b=(3πdke)^1/3 was used to estimate a fracture aperture, where b is the fracture aperture, d is the core diameter, and ke is the effective oil permeability of the fractured core. […] Af and Am are cross-sectional areas of the fracture and matrix, respectively. kf and km are permeabilities of the fracture and matrix, respectively.\nThe initial RB stage was at 6 cm^3/h for 1.5 pore volumes injected (PVI), then at 0.05 cm^3/h for 0.3-0.4 PVI, and at 6 cm^3/h until there was no oil production. After that, a chemical slug (3-pentanone or surfactant) was injected at 0.6 cm^3/h for 1.6 PVI. Finally, the chase RB was injected at 0.6 cm^3/h. […] However, it was terminated after 1.2 PVI of the chase RB for core 1 because of operational constraints.\nThe coreflood effluent was collected in plastic graduating cylinders at room temperature. To correct the oil recovery factor for 3-pentanone solubility in oil, the 3-pentanone concentration in recovered oil was measured by the proton nuclear magnetic resonance (H NMR) method for the chemical slug and chase RB flooding periods for core 1."}, "[5]": {"assay": "Volume change on mixing of 3-pentanone and RB (molar volume)", "format": "physicochemical", "settings": "347 K and atmospheric pressure"}, "[6]": {"assay": "Solubility (quantitative 1H NMR) and aqueous stability of 3-pentanone in reservoir brine", "settings": "347 K"}, "[7]": {"assay": "Spontaneous imbibition in Amott cells", "settings": "oil diluted by 18.6 wt % 3p"}}, "data": [{"compound": "CCC(=O)CC", "note": "[3-pentanone]", "values": [{"measurement": "phase separation of 3p/crude oil mixtures", "setting": "[1]", "result": "No phase separation was observed"}, {"measurement": "solubility of water in 3p", "setting": "[2]", "result": "approximately 3 wt %"}, {"measurement": "μo^−1/2 of 3p-diluted oil", "setting": "[3]; 33 mol % or 18.6 wt % 3p, atmospheric pressure", "result": 1.2383, "unit": "cp^−1/2"}, {"measurement": "Viscosity", "setting": "[3]; crude oil with 18.6 wt % (33 mol %) 3-pentanone, 134.38 kPa", "result": 0.6522, "unit": "cp"}, {"measurement": "Viscosity", "setting": "[3]; crude oil with 18.6 wt % (33 mol %) 3-pentanone, 1381.57 kPa", "result": 0.6534, "unit": "cp"}, {"measurement": "Viscosity", "setting": "[3]; crude oil with 18.6 wt % (33 mol %) 3-pentanone, 3448.00 kPa", "result": 0.6533, "unit": "cp"}, {"measurement": "Viscosity", "setting": "[3]; crude oil with 18.6 wt % (33 mol %) 3-pentanone, 6887.59 kPa", "result": 0.6545, "unit": "cp"}, {"measurement": "Viscosity", "setting": "[3]; crude oil with 18.6 wt % (33 mol %) 3-pentanone, 10336.00 kPa", "result": 0.6561, "unit": "cp"}, {"measurement": "Viscosity", "setting": "[3]; crude oil with 41.0 wt % (60 mol %) 3-pentanone, 157.89 kPa", "result": 0.4609, "unit": "cp"}, {"measurement": "Viscosity", "setting": "[3]; crude oil with 41.0 wt % (60 mol %) 3-pentanone, 1375.71 kPa", "result": 0.4604, "unit": "cp"}, {"measurement": "Viscosity", "setting": "[3]; crude oil with 41.0 wt % (60 mol %) 3-pentanone, 3448.00 kPa", "result": 0.4596, "unit": "cp"}, {"measurement": "Viscosity", "setting": "[3]; crude oil with 41.0 wt % (60 mol %) 3-pentanone, 6889.10 kPa", "result": 0.4613, "unit": "cp"}, {"measurement": "Viscosity", "setting": "[3]; crude oil with 41.0 wt % (60 mol %) 3-pentanone, 10337.52 kPa", "result": 0.4592, "unit": "cp"}, {"measurement": "Viscosity", "setting": "[3]; crude oil with 64.9 wt % (80 mol %) 3-pentanone, 135.9 kPa", "result": 0.3267, "unit": "cp"}, {"measurement": "Viscosity", "setting": "[3]; crude oil with 64.9 wt % (80 mol %) 3-pentanone, 1381.57 kPa", "result": 0.3264, "unit": "cp"}, {"measurement": "Viscosity", "setting": "[3]; crude oil with 64.9 wt % (80 mol %) 3-pentanone, 3446.55 kPa", "result": 0.3242, "unit": "cp"}, {"measurement": "Viscosity", "setting": "[3]; crude oil with 64.9 wt % (80 mol %) 3-pentanone, 6893.45 kPa", "result": 0.3221, "unit": "cp"}, {"measurement": "Viscosity", "setting": "[3]; crude oil with 64.9 wt % (80 mol %) 3-pentanone, 10340.41 kPa", "result": 0.3205, "unit": "cp"}, {"measurement": "oil viscosity reduction", "setting": "[3]; oil diluted by 18.6 wt % (33 mol %) 3-pentanone", "result": 21, "unit": "%"}, {"measurement": "incremental oil recovery factor, chase RB flooding stage", "setting": "[4]; 1.2 PVI chase RB (terminated), core 1, 347 K", "result": 8.4, "unit": "%"}, {"measurement": "incremental oil recovery factor, chemical slug stage", "setting": "[4]; 1.6 PVI slug after first RB flood, 1.1 wt % 3-pentanone in RB (core 1) or 1.0 wt % 2-EH-4PO-15EO in RB (core 2), 347 K", "result": 30.9, "unit": "%"}, {"measurement": "total improved oil recovery", "setting": "[4]; chemical slug + chase RB stages (1.2 PVI chase core 1; 7.0 PVI chase core 2), 347 K", "result": 39.3, "unit": "%"}, {"measurement": "volume change on mixing of 3-pentanone and RB", "setting": "[5]", "result": "smaller than 0.39%"}, {"measurement": "3p solubility in deionized water", "setting": "[6]", "result": 2.59, "unit": "wt %"}, {"measurement": "aqueous stability of 3p in RB (salt precipitation)", "setting": "[6]; overall 3p 0.1-40 wt %", "result": "No salt precipitation was observed"}, {"measurement": "solubility limit of 3-pentanone in RB", "setting": "[6]; reservoir brine 68722 ppm, quantitative 1H NMR", "result": 1.1, "unit": "wt %"}, {"measurement": "increase of oleic phase saturation (oil swelling)", "setting": "[7]; 347 K, atmospheric pressure", "result": 24, "unit": "%"}, {"measurement": "enhancement of oil recovery rate because of oil dilution by 3p (scaling theory)", "setting": "[7]; spontaneous imbibition", "result": 13, "unit": "%"}]}]}
